Laboratory results as given in patent US20110305784A1, “Fractionated products obtained from gamboge resin, and medical uses of the same” (priority 2010, published 2011).
Values after ≈ are worked out from the molar mass of the structure shown. Marks after values point to notes of the source that are not given here.

Assays:
in vitro = conditions: human
Text: (§1) The in vitro anti-cancer test was primarily used to detect the effect of a candidate drug on cancer cell proliferation. The working principle involved therein is the ability of viable cells to shift alamarBlue (AbD Serotec, UK) from its originally non-fluorescent oxidized state (non-fluorescent, blue) to a reduced form (fluorescent, red) having fluorescence via metabolic reaction. According to the fluorescent data result generated by the alamarBlue reagent thus obtained, the proliferation of the viable cells and cell activity can be quantified for detection.
(§2) In the in vitro anti-cancer tests, a candidate drug was tested at 5 different concentrations of 0.01, 0.1, 1, 10, and 100 μg/ml, and six human cancer cell lines and a normal human cell line were used (see Table 10).

[1] = tested on: Human breast adenocarcinoma cell MCF7; experiment: cells; conditions: for IC50: MCF7, read-out: IC50 (50% inhibition concentration); for CC50: MCF7, read-out: LC50 (50% lethal concentration)
Text: as §1, §2

[2] = tested on: Human colon adenocarcinoma cell HT-29; experiment: cells; conditions: for IC50: HT-29, read-out: IC50 (50% inhibition concentration); for CC50: HT-29, read-out: LC50 (50% lethal concentration)
Text: as §1, §2

[3] = tested on: Human hepatocellular carcinoma cell HepG2; experiment: cells; conditions: for IC50: HepG2, read-out: IC50 (50% inhibition concentration); for CC50: HepG2, read-out: LC50 (50% lethal concentration)
Text: as §1, §2

[4] = tested on: Human histocytic lymphoma cell U937; experiment: cells; conditions: for IC50: U-937, read-out: IC50 (50% inhibition concentration); for CC50: U-937, read-out: LC50 (50% lethal concentration)
Text: as §1, §2

[5] = tested on: Human lung carcinoma cell A549; experiment: cells; conditions: for IC50: A549, read-out: IC50 (50% inhibition concentration); for CC50: A549, read-out: LC50 (50% lethal concentration)
Text: as §1, §2

[6] = tested on: Human promyelocytic leukemia cell HL-60; experiment: cells; conditions: for IC50: HL-60, read-out: IC50 (50% inhibition concentration); for CC50: HL-60, read-out: LC50 (50% lethal concentration)
Text: as §1, §2

[7] = tested on: Human umbilical venal epithelial cell (HUVEC); experiment: cells; conditions: Homo sapiens, HUVEC, read-out: IC50 (50% inhibition concentration)
Text: as §1, §2

male Wistar rats [8] = experiment: In vivo anti-inflammation test of formulation TSB-9-W1 (carrageenan hind paw edema); conditions: aspirin oral 150 mg/Kg, three hours after carrageenan injection
Procedure: Briefly, male Wistar rats with a weight of around 160±5 g were randomly divided into four groups (n=5 for each group) including two experimental groups ([…]1-1 group and TSB-9-W1-2 group) and two control groups (i.e., a vehicle normal control group and an aspirin positive control group). […] Three hours after the intraplantar injection, the volumes of the left and right hind paws of each rat were measured using a plethysmometer (#7150, UGO Basile, Italy) including a water cell (a diameter of 25 mm; #7157, UGO Basile, Italy), and the hind paw edema volume was expressed as the difference between the measured volumes of the left and right hind paws. […] D=(E-F)/E×100 (2) wherein D=inhibition rate of hind paw edema, • E=the average value of the hind paw edema volumes in the vehicle normal control group of rats, and • F=the average value of the hind paw edema volumes in each group of rats.

male Wistar rats [9] = experiment: In vivo anti-inflammation test of the fractionated products TSB-14A to TSB-14E (carrageenan hind paw edema); conditions: aspirin positive control, oral, three hours after carrageenan injection
Procedure: Briefly, male Wistar rats with a weight of around 160±5 g were randomly divided into four groups (n=5 for each group) including two experimental groups (i.e., TSB-9-W1-1 group and TSB-9-W1-2 group) and two control groups (i.e., a vehicle normal control group and an aspirin positive control group). After overnight fasting, the rats in the TSB-9-W1-1 and the TSB-9-W1-2 groups were orally administered with the formulation TSB-9-W1 at a dose of 10 mg/Kg and a dose of 30 mg/Kg, respectively, the rats in the vehicle normal control group were orally administered with 2% Tween 80 at a dosing volume of 10 mL/Kg, and the rats in the aspirin positive control group were orally administered with aspirin at a dose of 150 mg/Kg. One hour later, 0.1 mL of a 1% carrageenan suspension was intraplantarly injected into the right hind paws of rats in each group. Three hours after the intraplantar injection, the volumes of the left and right hind paws of each rat were measured using a plethysmometer (#7150, UGO Basile, Italy) including a water cell (a diameter of 25 mm; #7157, UGO Basile, Italy), and the hind paw edema volume was expressed as the difference between the measured volumes of the left and right hind paws. Inhibition rate (%) of hind paw edema in each group of rats was calculated using the following Equation (2): […]

male CD-1 (Crl.) mice [10] = experiment: In vivo analgesia test of formulation TSB-9-W (formalin, hind paw licking); conditions: morphine oral 30 mg/Kg
Procedure: The formulation TSB-9 was milled to obtain a formulation TSB-9-W having a particle size of around 10 μm, and an in vivo analgesia test of the formulation TSB-9-W was performed by the MDS Pharma Services.
Briefly, male CD-1 (Crl.) mice were randomly divided into three groups (n=5 for each group) including an experimental group (i.e., TSB-9-W group) and two control groups (i.e., a vehicle normal control group and a morphine positive control group). The mice in the TSB-9-W group were orally administered with the formulation TSB-9-W at a dose of 100 mg/Kg, the mice in the vehicle normal control group were orally administered with 2% Tween 80 at a dosing volume of 10 mL/Kg, and the mice in the morphine positive control group were orally administered with morphine at a dose of 30 mg/Kg. One hour later, 0.02 mL of a 2% formalin solution was subplantarly injected into the hind paws of mice in each group, and the hind paw licking times for each mouse were counted at the time intervals of 0-5 minutes and 15-30 minutes after formalin injection. Inhibition rate (%) of hind paw licking in each group of mice was calculated using the following Equation (1):
wherein A=inhibition rate of hind paw licking (%), • B=the average value of the hind paw licking times in the vehicle normal control group of mice, and • C=the average value of the hind paw licking times in each group of mice.

male CD-1 (Crl.) mice [11] = experiment: In vivo analgesia test of the fractionated products TSB-14A to TSB-14E (formalin, hind paw licking); design: concentration or dose not given beside the values; conditions: morphine positive control, oral
[12] = 0-5 minutes after formalin injection

SMILES | CC50 (in vitro) | IC50 [1] | CC50 [1] | IC50 [2] | CC50 [2] | IC50 [3] | CC50 [3] | IC50 [4] | CC50 [4] | IC50 [5] | CC50 [5] | IC50 [6] | CC50 [6] | IC50 [7] | also measured
C=C(C)C(O)CC[C@]1(C)C=Cc2c(O)c3c(c(CC=C(C)C)c2O1)O[C@]12C(=C[C@@H]4CC1C(C)(C)OC2(C/C=C(/C)C(=O)O)C4=O)C3=O (some centres unmarked) [Gh-3291, formoxanthone D] | 1.4 µg/mL (≈ 2.17 µM) | 0.45 µg/mL (≈ 0.698 µM) | 2.8 µg/mL (≈ 4.34 µM) | 0.081 µg/mL (≈ 0.126 µM) | 4.7 µg/mL (≈ 7.29 µM) | 0.65 µg/mL (≈ 1.01 µM) | 8.7 µg/mL (≈ 13.5 µM) | 0.22 µg/mL (≈ 0.341 µM) | 0.61 µg/mL (≈ 0.946 µM) | 0.62 µg/mL (≈ 0.962 µM) | 3.3 µg/mL (≈ 5.12 µM) | 4.5 µg/mL (≈ 6.98 µM) | 30 µg/mL (≈ 46.5 µM) | 0.34 µg/mL (≈ 0.527 µM) | 
CC(=O)Oc1ccccc1C(=O)O [Aspirin, aspirin] |  |  |  |  |  |  |  |  |  |  |  |  |  |  | Inhibition rate of hind paw edema (%) (male Wistar rats [8]): 40* %; Inhibition rate of hind paw edema (%) (male Wistar rats [9]): 37* %
C=C(C)C1CC[C@@]2(C)Oc3c(CC=C(C)C)c4c(c(O)c3[C@@H]1C2O)C(=O)C1=C[C@@H]2CC3C(C)(C)OC(C/C=C(/C)C(=O)O)(C2=O)[C@@]13O4 (stereo partly drawn) [Gh-1050, 3α-hydroxygambogellic acid] | 3.4 µg/mL (≈ 5.27 µM) | 0.14 µg/mL (≈ 0.217 µM) | 1 µg/mL (≈ 1.55 µM) | 4.8 µg/mL (≈ 7.44 µM) | 7.7 µg/mL (≈ 11.9 µM) | 1.1 µg/mL (≈ 1.71 µM) | 3.8 µg/mL (≈ 5.89 µM) | 0.21 µg/mL (≈ 0.326 µM) | 2.3 µg/mL (≈ 3.57 µM) | 0.13 µg/mL (≈ 0.202 µM) | 0.74 µg/mL (≈ 1.15 µM) | 0.17 µg/mL (≈ 0.264 µM) | 7 µg/mL (≈ 10.9 µM) | 0.78 µg/mL (≈ 1.21 µM) | 
CC(C)=CCC[C@@]1(C)C=Cc2c(O)c3c(c(CC4OC4(C)C)c2O1)O[C@]12C(=C[C@@H]4CC1C(C)(C)OC2(C/C=C(/C)C(=O)O)C4=O)C3=O (some centres unmarked) [Gh-3351, epiformoxanthone E] | 3.3 µg/mL (≈ 5.12 µM) | 0.99 µg/mL (≈ 1.54 µM) | 3.8 µg/mL (≈ 5.89 µM) | 1.9 µg/mL (≈ 2.95 µM) | 72.6 µg/mL (≈ 113 µM) | 2.9 µg/mL (≈ 4.5 µM) | 31.2 µg/mL (≈ 48.4 µM) | 0.24 µg/mL (≈ 0.372 µM) | 0.62 µg/mL (≈ 0.962 µM) | 0.77 µg/mL (≈ 1.19 µM) | 3.4 µg/mL (≈ 5.27 µM) | 11.7 µg/mL (≈ 18.1 µM) | 22.1 µg/mL (≈ 34.3 µM) | 0.11 µg/mL (≈ 0.171 µM) | 
CC(C)=CCc1c2c(c(O)c3c1O[C@]14C(=C[C@@H]5CC1C(C)(C)OC4(C/C=C(\C)C(=O)O)C5=O)C3=O)C=CC(C)(C/C=C\C(C)(C)O)O2 (some centres unmarked) [Gh-3332, isoformoxanthone I] | 3.3 µg/mL (≈ 5.12 µM) | 0.87 µg/mL (≈ 1.35 µM) | 3.3 µg/mL (≈ 5.12 µM) | 0.85 µg/mL (≈ 1.32 µM) | 73.8 µg/mL (≈ 114 µM) | 6.7 µg/mL (≈ 10.4 µM) | 19.6 µg/mL (≈ 30.4 µM) | 0.23 µg/mL (≈ 0.357 µM) | 1.4 µg/mL (≈ 2.17 µM) | 1.3 µg/mL (≈ 2.02 µM) | 4.6 µg/mL (≈ 7.13 µM) | 11.8 µg/mL (≈ 18.3 µM) | 30.5 µg/mL (≈ 47.3 µM) | 0.11 µg/mL (≈ 0.171 µM) | 
CC(C)=CCC[C@]1(C)C=Cc2c(O)c3c(c(CC4OC4(C)C)c2O1)O[C@]12C(=C[C@@H]4CC1C(C)(C)OC2(C/C=C(/C)C(=O)O)C4=O)C3=O (some centres unmarked) [Gh-3352, formoxanthone E] | 0.85 µg/mL (≈ 1.32 µM) | 0.075 µg/mL (≈ 0.116 µM) | 1.8 µg/mL (≈ 2.79 µM) | 0.18 µg/mL (≈ 0.279 µM) | 0.68 µg/mL (≈ 1.05 µM) | 0.16 µg/mL (≈ 0.248 µM) | 2 µg/mL (≈ 3.1 µM) | 0.11 µg/mL (≈ 0.171 µM) | 0.26 µg/mL (≈ 0.403 µM) | 0.18 µg/mL (≈ 0.279 µM) | 0.99 µg/mL (≈ 1.54 µM) | 0.26 µg/mL (≈ 0.403 µM) | 0.93 µg/mL (≈ 1.44 µM) | 0.084 µg/mL (≈ 0.13 µM) | 
CC(C)=CCC[C@@]1(C)C=Cc2c(O)c3c(c(C(O)C4OC4(C)C)c2O1)O[C@]12C(=C[C@@H]4CC1C(C)(C)OC2(C/C=C(/C)C(=O)O)C4=O)C3=O (some centres unmarked) [Gh-3311, epiformoxanthone G] | 13.9 µg/mL (≈ 21 µM) | 8 µg/mL (≈ 12.1 µM) | 14 µg/mL (≈ 21.2 µM) | 7.9 µg/mL (≈ 12 µM) | 38 µg/mL (≈ 57.5 µM) | 7.9 µg/mL (≈ 12 µM) | 25.6 µg/mL (≈ 38.7 µM) | 1.9 µg/mL (≈ 2.88 µM) | 5.4 µg/mL (≈ 8.17 µM) | 5 µg/mL (≈ 7.57 µM) | 21.2 µg/mL (≈ 32.1 µM) | 1.4 µg/mL (≈ 2.12 µM) | 2.2 µg/mL (≈ 3.33 µM) | 4 µg/mL (≈ 6.05 µM) | 
CC(C)=CCc1c2c(c(O)c3c1O[C@]14C(=C[C@@H]5CC1C(C)(C)OC4(C/C=C(/C)C(=O)O)C5=O)C3=O)C=C[C@@](C)(C/C=C/C(C)(C)O)O2 [Gh-3272, formoxanthone H] | 2.5 µg/mL (≈ 3.88 µM) | 0.73 µg/mL (≈ 1.13 µM) | 2.8 µg/mL (≈ 4.34 µM) | 0.36 µg/mL (≈ 0.558 µM) | 6.6 µg/mL (≈ 10.2 µM) | 1.2 µg/mL (≈ 1.86 µM) | 3.7 µg/mL (≈ 5.74 µM) | 0.16 µg/mL (≈ 0.248 µM) | 0.43 µg/mL (≈ 0.667 µM) | 1.7 µg/mL (≈ 2.64 µM) | 4.7 µg/mL (≈ 7.29 µM) | 1.7 µg/mL (≈ 2.64 µM) | 5.1 µg/mL (≈ 7.91 µM) | 0.12 µg/mL (≈ 0.186 µM) | 
CN1CC[C@]23c4c5ccc(O)c4O[C@H]2[C@@H](O)C=C[C@H]3[C@H]1C5 [Morphine, morphine] |  |  |  |  |  |  |  |  |  |  |  |  |  |  | Inhibition rate of hind paw licking (%) (male CD-1 (Crl.) mice [10]; [12]): 100* %; Inhibition rate of hind paw licking (%) (male CD-1 (Crl.) mice [10]; 15-30 minutes after formalin injection): 100* %; Inhibition rate of hind paw licking (%) (male CD-1 (Crl.) mice [11]; [12]): 62* %; Inhibition rate of hind paw licking (%) (male CD-1 (Crl.) mice [11]; 10-15 minutes after formalin injection): 89* %; Inhibition rate of hind paw licking (%) (male CD-1 (Crl.) mice [11]; 15-20 minutes after formalin injection): 81* %; Inhibition rate of hind paw licking (%) (male CD-1 (Crl.) mice [11]; 20-25 minutes after formalin injection): 68* %; Inhibition rate of hind paw licking (%) (male CD-1 (Crl.) mice [11]; 25-30 minutes after formalin injection): 0%
